Measurements from paper PMC10229078, “In vitro effects of lapachol and β-lapachone against Leishmania amazonensis” (Brazilian Journal of Medical and Biological Research, 2023).
Several values for one entry are separate records, joined by “and”; a condition that tells them apart may be missing. Equal entries are not always repeated.

Legend:
[1] = test system: Leishmania amazonensis promastigotes; assay: Viability assay of promastigotes, XTT colorimetric method (LD50); type: cell-based, Leishmania amazonensis (MHOM/BR/1977/LTB0016); conditions: 25°C
Description: The viability of L. amazonensis (MHOM/BR/1977/LTB0016) promastigotes was evaluated using the XTT colorimetric method, which consists in the XTT salt degradation by the mitochondria forming formazan crystals. Promastigote forms (2×10^7 parasites/mL) from a culture in logarithmic growth phase were incubated with lapachol and β-lapachone diluted in 199 culture medium. The drugs were diluted in series, in a ratio of two, starting from 1/2, on a 96-well cell culture plate (TPP™ test plate, Switzerland). The compounds were tested at concentrations from 204.4 to 0.40 µg/mL (lapachol) and 157.5 to 0.31 µg/mL (β-lapachone). After 24, 48, and 72 h of incubation at 25°C, 100 μL of the XTT solution (500 μg/mL) activated with PMS (50 μg/mL) were added to each well and incubated for 4 h at 37°C. The result was measured by absorbance, determined by spectrophotometry (450/650 nm filter, VersaMax™ ELISA microplate reader, USA). The lethal dose (LD50) was defined as the concentrations of the compounds that reduced survival of L. amazonensis by 50% compared to untreated parasites in culture medium. AmB (1.96 to 0.25 µg/mL) was used as positive control of leishmanicidal activity. The therapeutic selectivity index (TSI CC50/LD50) was calculated by the ratio of toxicity to macrophage vs toxicity to parasites after 24 h incubation ([28]). All assays were performed in triplicate and repeated at least three times.

[2] = test system: Leishmania amazonensis promastigotes; assay: Promastigote growth inhibition, counting in Neubauer chamber (IC50); type: cell-based, Leishmania amazonensis (MHOM/BR/1977/LTB0016)
Description: Leishmania growth was evaluated after 24 h of incubation at 25°C with the compounds under the same conditions as previously mentioned. Then, 10 µL of the content of each well was added to a 990 µL (1/100) of formalin solution (2%), and the parasites were counted in a Neubauer chamber. The inhibitory concentration (IC50) of promastigotes was calculated by comparing with untreated promastigotes in culture medium. The results were evaluated by linear regression of the inhibition percentage. The selectivity index (SI CC50/IC50) was calculated by the ratio of toxicity concentration to macrophage vs inhibitory concentration to the parasite growth after 24 h incubation ([27]). All assays were performed in triplicate and repeated at least three times.

[3] = test system: Leishmania amazonensis promastigotes; assay: Change in cell volume and morphology of the parasites (flow cytometry FSC-H/SSC-H, SEM); type: cell-based; conditions: 24 h, lapachol 76.62 µg/mL, β-lapachone 1.63 µg/mL; for Percentage population of the lower left quadrant gate (FSC-H/SSC-H, cell volume): H2O2 2 mM, untreated 93.14%
Description: Promastigote forms (2×10^7 cells) of L. amazonensis untreated (negative control) or treated with 76.62 µg/mL of lapachol and 1.63 µg/mL of β-lapachone were analyzed to observe changes in cell morphology of the parasites induced by the treatment after 24 h of incubation. […] Subsequently, the parasites were analyzed using a BD FacsCalibur flow cytometer (Becton Dickinson, USA) and CellQuest Pro software (Joseph Trotter, Scripps Research Institute, USA), and 10,000 events were acquired. Dot plots were generated, the forward scatter (FSC-H) parameter was analyzed as presenting a correlation with the cell volume.
Scanning electron microscopy (SEM) also was performed to analyze morphological changes in cell surface topography. After 24 h of treatment, the parasites were centrifuged at 576 g for 10 min, and the samples were fixed in 2.5% glutaraldehyde and 0.1 M sodium cacodylate buffer. Poly-L-lysine was used to promote the adhesion of fixed parasites on coverslips. Promastigotes were dehydrated with increasing ethanol concentrations (30-100%), submitted to critical point drying, and metalized with gold for visualization on a Shimadzu 55-550 (Japan) microscope.

[4] = test system: L. amazonensis promastigotes; assay: Externalized phosphatidylserine, annexin V-FITC/PI; type: cell-based, Leishmania amazonensis; conditions: lapachol 76.62 µg/mL, β-lapachone 1.63 µg/mL; for Annexin labeling (AnV+, PI-): 4 h; for Annexin labeling (AnV+, PI-), change on longer incubation: 24 h
Description: […] After treatment, the cells were centrifuged (901 g for 10 min) at room temperature and washed in PBS. According to the manufacturer's instructions, annexin V-FITC and PI (Sigma-Aldrich) were added. Data were acquired using the BD FacsCalibur™ flow cytometer (FL1 vs FL2) and CellQuest Pro software, with a total of 10,000 events acquired for analysis of results.

[5] = test system: IL-2, IL-4, IL-6, IFN-γ, TNF-α, IL-17A, IL-10 production in murine macrophages; assay: Cytokine production in supernatant of amastigote assays (CBA Mouse Th1/Th2/Th17 kit); type: cell-based, BALB/c mice; conditions: 24 h; for IL-2, IL-4, IFN-γ, IL-17A, and IL-10 production: macrophages infected with L. amazonensis and treated; for IL-6 levels / TNF-α levels: uninfected and infected treated macrophages, all concentrations tested
Description: For the determination of cytokines, the supernatant of the amastigote assays stored at −80°C was used (MO, macrophages (negative control); MO + L. amazonensis (6 parasites/macrophage); samples treated with lapachol at IC50/2, IC50, and 2× IC50 with L. amazonensis (+) or without (-); the same was repeated for β-lapachone). The supernatant was centrifuged, and a 50 μL aliquot was used to determine cytokine levels (in pg/mL) using the BD Cytometric Bead Array (CBA) Mouse Th1/Th2/Th17 Cytokine kit (BD Life Sciences - Biosciences, USA). The dosage was performed in triplicate and according to the manufacturer's standards. This method is based on a suspension that contains beads, in which encoded fluorescent beads have cytokines that capture antibodies to bind the proteins. The final analysis was performed by flow cytometry using the BD FacsCalibur™ flow cytometer and CellQuest Pro software. The kit allows the measurement of seven distinct populations of Th1, Th2, and Th17 cytokines (IL-2, IL-4, IL-6, IFN-γ, TNF-α, IL-17A, and IL-10) in a single sample.

[6] = test system: L. amazonensis (strains MHOM/BR/1989/ BA199); design: method as in ref 23 Guimarães et al.; conditions: 72 h, strain MHOM/BR/1989/BA199, ref 23 Guimarães et al.; cited from earlier work

With “4-hydroxy-3-(3-methylbut-2-enyl)naphthalene-1,2-dione [lapachol]” the “Promastigotes LD50” value ([1]; 24 h incubation) was 75.60 µg/mL, the “Promastigotes LD50” value ([1]; 24 h incubation, listed as Lapachol (1)) was 75.60 ± 6.12 µg/mL and the “Promastigotes LD50” value ([1]; 48 h incubation) was 72.82 µg/mL and 72.82 ± 12.99 µg/mL. The “Promastigotes LD50” value ([1]; 72 h incubation) was 58.85 µg/mL and 58.85 ± 6.43 µg/mL, the IC50 ([2]; 24 h, value in µM) was 316 µM and the “Promastigotes IC50” value ([2]; 24 h incubation, growth inhibition by counting) was 76.62 ± 1.21 µg/mL. The “Morphological changes of promastigotes (SEM, microscopy)” value [3] was “loss of cell volume, rounder shape, flagellar alterations, and cellular shrinkage”, the “Percentage population of the lower left quadrant gate (FSC-H/SSC-H, cell volume)” value [3] was 82.82% and the “Annexin labeling (AnV+, PI-)” value [4] was 8.57%. The “Annexin labeling (AnV+, PI-), change on longer incubation” value [4] was “not possible to observe the increase”, the “IL-2, IL-4, IFN-γ, IL-17A, and IL-10 production” value [5] was “did not present significant changes” and the IL-6 levels [5] was “decrease”. The TNF-α levels [5] was “decrease” and the IC50 [6] was 102 µM.
For `CC1(C)CCC2=C(O1)c1ccccc1C(=O)C2=O` [β-lapachone, 2,2-dimethyl-3,4-dihydrobenzo[h]chromene-5,6-dione], the “Promastigotes LD50” value ([1]; 24 h incubation) was 0.65 µg/mL and 0.65 ± 0.18 µg/mL, the “Promastigotes LD50” value ([1]; 24 h incubation, listed as β-lapachone (2)) was 0.65 ± 0.18 µg/mL and the “Promastigotes LD50” value ([1]; 48 h incubation) was 1.24 µg/mL and 1.24 ± 0.19 µg/mL. For the same compound, the “Promastigotes LD50” value ([1]; 72 h incubation) was 0.71 µg/mL and 0.71 ± 0.03 µg/mL, the IC50 ([2]; Leishmania amazonensis, 24 h, value in µM) was 6.73 µM and the IC50 ([2]; Leishmania amazonensis, 24 h incubation, growth inhibition by counting) was 1.63 ± 0.09 µg/mL. The “Morphological changes of promastigotes (SEM, microscopy)” value [3] was “loss of cell volume, rounder shape, flagellar alterations, and cellular shrinkage”, the “Percentage population of the lower left quadrant gate (FSC-H/SSC-H, cell volume)” value [3] was 62.35% and the “Annexin labeling (AnV+, PI-)” value [4] was 9.03%. For the same compound, the “Annexin labeling (AnV+, PI-), change on longer incubation” value [4] was “not possible to observe the increase”, the “IL-2, IL-4, IFN-γ, IL-17A, and IL-10 production” value [5] was “did not present significant changes” and the IL-6 levels [5] was “decrease”. For the same compound, the TNF-α levels [5] was “decrease” and the IC50 [6] was 1.39 µM.
